Experimental data reported in the NIST ThermoML archive (doi:10.1021/je1001413).

Conditions: Liquid, Vibrating tube method

CC(C)CCCCCCCOC(=O)c1ccccc1C(=O)OCCCCCCCC(C)C
Conditions	mass density [kg/m3]
313.15 K, 100 kPa	952.6
313.15 K, 200 kPa	952.6
313.15 K, 400 kPa	952.8
313.15 K, 620 kPa	952.9
313.15 K, 800 kPa	953
313.15 K, 1030 kPa	953.1
313.15 K, 2010 kPa	953.7
313.15 K, 3000 kPa	954.3
313.15 K, 4000 kPa	955
313.15 K, 5020 kPa	955.5
313.15 K, 5990 kPa	956.2
313.15 K, 7030 kPa	956.7
313.15 K, 8000 kPa	957.4
313.15 K, 9020 kPa	957.9
313.15 K, 10010 kPa	958.5
313.15 K, 15010 kPa	961.4
313.15 K, 20000 kPa	964.2
313.15 K, 25030 kPa	967
313.15 K, 30000 kPa	969.7
313.15 K, 35020 kPa	972.2
313.15 K, 40020 kPa	974.8
313.15 K, 45010 kPa	977.2
313.15 K, 49970 kPa	979.7
313.15 K, 55000 kPa	982
313.15 K, 59980 kPa	984.4
313.15 K, 64970 kPa	986.6
323.15 K, 100 kPa	945.4
323.15 K, 210 kPa	945.5
323.15 K, 400 kPa	945.6
323.15 K, 600 kPa	945.7
323.15 K, 800 kPa	945.9
323.15 K, 1000 kPa	946
323.15 K, 2000 kPa	946.6
323.15 K, 3030 kPa	947.2
323.15 K, 4030 kPa	947.9
323.15 K, 5020 kPa	948.5
323.15 K, 6010 kPa	949.1
323.15 K, 7000 kPa	949.7
323.15 K, 8000 kPa	950.3
323.15 K, 9010 kPa	950.9
323.15 K, 10020 kPa	951.6
323.15 K, 15000 kPa	954.5
323.15 K, 20010 kPa	957.5
323.15 K, 25030 kPa	960.3
323.15 K, 30010 kPa	963.2
323.15 K, 34970 kPa	965.8
323.15 K, 40000 kPa	968.5
323.15 K, 45000 kPa	970.9
323.15 K, 49980 kPa	973.5
323.15 K, 54980 kPa	975.8
323.15 K, 60000 kPa	978.3
323.15 K, 65000 kPa	980.6
333.15 K, 100 kPa	938.3
333.15 K, 200 kPa	938.4
333.15 K, 400 kPa	938.5
333.15 K, 630 kPa	938.7
333.15 K, 800 kPa	938.8
333.15 K, 1000 kPa	938.9
333.15 K, 2010 kPa	939.6
333.15 K, 3000 kPa	940.2
333.15 K, 4000 kPa	940.9
333.15 K, 5000 kPa	941.5
333.15 K, 6000 kPa	942.2
333.15 K, 7030 kPa	942.8
333.15 K, 7980 kPa	943.5
333.15 K, 9010 kPa	944.1
333.15 K, 10030 kPa	944.8
333.15 K, 14990 kPa	947.9
333.15 K, 20000 kPa	951
333.15 K, 25000 kPa	953.8
333.15 K, 30020 kPa	956.7
333.15 K, 34990 kPa	959.4
333.15 K, 39970 kPa	962.2
333.15 K, 45020 kPa	964.8
333.15 K, 50000 kPa	967.4
333.15 K, 55020 kPa	969.8
333.15 K, 60000 kPa	972.3
333.15 K, 65000 kPa	974.7
